From ChEMBL document CHEMBL4619814, “Identification and Development of 1,4-Diaryl-1,2,3-triazolo-Based Ureas as Novel FLT3 Inhibitors” (ACS Med Chem Lett, 2020) come the findings set out here.

Molecules are shown by their SMILES. Some results are limits rather than exact numbers.

A word on the GI50: it is the concentration that inhibits growth by half. Low values mean more potent growth inhibition, high ones less potent growth inhibition.

A short description of one data set: in vitro. Particulars: mouse, BaF3 cells.
Data set [1] has as its system Receptor-type tyrosine-protein kinase FLT3 (Homo sapiens), P36888 [UNDEFINED MUTATION]. Particulars: MV4-11.
Description: Inhibition of FLT3 ITD mutant expressed in human MV4-11 cells assessed as reduction in cell growth incubated for 72 hrs by CCK8 assay
Data set [2] has the same test system. To be noted: BaF3.
Description: Inhibition of FLT3 ITD mutant expressed in human BaF3 cells assessed as reduction in cell growth incubated for 72 hrs by CCK8 assay

Receptor-type tyrosine-protein kinase FLT3 (Homo sapiens), P36888 [UNDEFINED MUTATION], sequence (P36888 whole entry, looked up, change not shown): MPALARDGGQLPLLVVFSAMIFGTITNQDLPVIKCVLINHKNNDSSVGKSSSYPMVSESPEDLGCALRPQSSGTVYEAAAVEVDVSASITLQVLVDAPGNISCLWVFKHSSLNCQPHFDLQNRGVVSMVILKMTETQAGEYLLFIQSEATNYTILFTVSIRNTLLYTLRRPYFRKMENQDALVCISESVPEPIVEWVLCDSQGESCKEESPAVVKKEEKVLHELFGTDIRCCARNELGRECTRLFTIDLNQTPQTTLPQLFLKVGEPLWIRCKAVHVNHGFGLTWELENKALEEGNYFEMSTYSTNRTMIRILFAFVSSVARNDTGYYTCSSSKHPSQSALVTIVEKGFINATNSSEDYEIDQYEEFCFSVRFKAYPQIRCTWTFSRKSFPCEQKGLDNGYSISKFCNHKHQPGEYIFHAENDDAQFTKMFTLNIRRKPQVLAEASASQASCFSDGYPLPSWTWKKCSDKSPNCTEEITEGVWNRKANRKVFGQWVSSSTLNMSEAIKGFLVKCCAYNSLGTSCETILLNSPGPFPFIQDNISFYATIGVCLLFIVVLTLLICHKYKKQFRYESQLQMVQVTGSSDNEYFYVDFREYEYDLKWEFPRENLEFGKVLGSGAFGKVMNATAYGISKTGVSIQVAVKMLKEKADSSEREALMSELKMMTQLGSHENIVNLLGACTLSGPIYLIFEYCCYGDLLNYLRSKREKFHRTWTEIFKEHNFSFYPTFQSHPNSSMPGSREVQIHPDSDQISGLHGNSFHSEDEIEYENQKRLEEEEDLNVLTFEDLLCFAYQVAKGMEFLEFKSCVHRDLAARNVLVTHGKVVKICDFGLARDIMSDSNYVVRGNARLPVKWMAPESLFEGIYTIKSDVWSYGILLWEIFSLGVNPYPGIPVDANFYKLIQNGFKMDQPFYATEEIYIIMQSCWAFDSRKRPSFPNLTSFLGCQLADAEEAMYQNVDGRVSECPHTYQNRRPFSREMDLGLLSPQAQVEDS
Description for in vitro: Cytotoxicity against human BAF3 cells assessed as growth inhibition incubated for 72 hrs by CCK8 assay

In the data set “in vitro”, `CC(C)(C)c1cc(NC(=O)Nc2ccc(-c3cn(-c4ccc(OCCN5CCCC5)cc4Cl)nn3)cc2)no1` displayed a GI50 at 72 h of 2040 nM. Besides, the GI50 in data set [1] was 5 nM.
For the compound `CC(C)(C)c1cc(NC(=O)Nc2ccc(-c3cn(-c4ccc(OCCN5CCOCC5)c([N+](=O)[O-])c4)nn3)cc2)no1`, in the data set “in vitro”, the GI50 at 72 h was > 3000 nM. Further, the GI50 amounted to 55.4 nM in data set [2] and 39.2 nM in data set [1].
Regarding `CC(C)(C)c1cc(NC(=O)Nc2ccc(-c3cn(-c4ccc(OCCN5CCOCC5)cc4)nn3)c(F)c2)no1`, in “in vitro”, the GI50 at 72 h was > 3000 nM. In addition, the GI50 stood at 1.5 nM in data set [2] and 10.3 nM in data set [1].
In the same order, the values of `Cc1cc(-n2cc(-c3ccc(NC(=O)Nc4cc(C(C)(C)C)on4)cc3)nn2)ccc1OCCN1CCOCC1` are 1970 nM, 1 nM and 7.1 nM.
`COc1cc(-n2cc(-c3ccc(NC(=O)Nc4cc(C(C)(C)C)on4)cc3)nn2)ccc1OCCN1CCOCC1`: the GI50 at 72 h in the data set “in vitro” was > 3000 nM. In addition, in data set [1], the GI50 amounted to 4.8 nM.
As for `CC(C)(C)c1cc(NC(=O)Nc2ccc(-c3cn(-c4ccc(OCCN5CCOCC5)cc4F)nn3)cc2)no1`, in the data set “in vitro”, the GI50 at 72 h was > 3000 nM. The same compound returned a GI50 in data set [1] of 5.1 nM.
As to `CC(C)(C)c1cc(NC(=O)Nc2ccc(-c3cn(-c4ccc(OCCN5CCOCC5)cc4)nn3)cc2F)no1`, the GI50 at 72 h in “in vitro” was > 3000 nM. Also, the GI50 was found to be 4.2 nM in data set [2] and 19.6 nM in data set [1].
With `CN(C)CCOc1ccc(-n2cc(-c3ccc(NC(=O)Nc4cc(C(C)(C)C)on4)cc3)nn2)c(Cl)c1`, in “in vitro”, the GI50 at 72 h is > 3000 nM. In addition, in data set [1], the GI50 was determined as 4 nM.
In the same order, the values of `CC(C)(C)c1cc(NC(=O)Nc2ccc(-c3cn(-c4ccc(OCCN5CCCCC5)cc4Cl)nn3)cc2)no1` are 1960 nM and 5.6 nM.
As to `CC(C)(C)c1cc(NC(=O)Nc2ccc(-c3cn(-c4ccc(OCCN5CCOCC5)cc4C(F)(F)F)nn3)cc2)no1`, in “in vitro”, the GI50 at 72 h is > 3000 nM. In addition, the GI50 in data set [2] came to 40.5 nM; in data set [1] it was 58.6 nM.
For `CC(C)(C)c1cc(NC(=O)Nc2ccc(-c3cn(-c4ccc(OCCN5CCOCC5)c(C(F)(F)F)c4)nn3)cc2)no1`, in that order: 1520 nM, 48.5 nM and 106 nM.
For `COc1cc(-c2cn(-c3ccc(OCCN4CCOCC4)cc3)nn2)ccc1NC(=O)Nc1cc(C(C)(C)C)on1`, the GI50 at 72 h in the data set “in vitro” is 1510 nM. Also, the GI50 stood at 851 nM in data set [2] and 1220 nM in data set [1].
For `CC(C)(C)c1cc(NC(=O)Nc2ccc(-c3cn(-c4ccc(OCCN5CCOCC5)c(Cl)c4)nn3)cc2)no1`, in that order: 1380 nM, 2.8 nM and 21.5 nM.
For `CC(C)(C)c1cc(NC(=O)Nc2ccc(-c3cn(-c4ccc(OCCN5CCOCC5)cc4)nn3)c(Cl)c2)no1`, in that order: > 3000 nM, 3 nM and 12 nM.
In the same order, the values of `CC(C)(C)c1cc(NC(=O)Nc2ccc(-c3cn(-c4ccc(OCCN5CCOCC5)cc4)nn3)cc2Cl)no1` are > 3000 nM, 165 nM and 498 nM.
`CC(C)(C)c1cc(NC(=O)Nc2ccc(-c3cn(-c4ccc(OCCN5CCOCC5)cc4Br)nn3)cc2)no1` registered a GI50 at 72 h in “in vitro” of 2020 nM. Moreover, the figures for the GI50 in data set [2] and in data set [1] were 2.3 nM and 5.7 nM, respectively.
`CC(C)(C)c1cc(NC(=O)Nc2ccc(-c3cn(-c4ccc(OCCN5CCOCC5)cc4)nn3)cc2)no1`: in “in vitro”, the GI50 at 72 h was > 3000 nM. In data set [1], this compound returned a GI50 of 4 nM.
In turn, `Cc1cc(-c2cn(-c3ccc(OCCN4CCOCC4)cc3)nn2)ccc1NC(=O)Nc1cc(C(C)(C)C)on1` yielded a 50% growth inhibitory concentration (GI50) at 72 h in “in vitro” of 2160 nM. Further, the values for the GI50 in data set [2] and in data set [1] were 61.5 nM and 344 nM, respectively.
For `CC(C)(C)c1cc(NC(=O)Nc2ccc(-c3cn(-c4ccc(OCCCN5CCOCC5)cc4Cl)nn3)cc2)no1`, in “in vitro”, the GI50 at 72 h is > 3000 nM. For the same compound, the GI50 in data set [2] was determined as 1.5 nM; in data set [1] it was 6.2 nM.
